In patent publication US10335409B2 (priority 2012, dated 2019):
pEC50: −log10 of the molar value. Where two headings read alike, the source gives them in different places.

Tests used:
Type in all cases: cell-based, hepatitis C virus
[1] = system: genotype 1b NS3/4a protease inhibitor resistant variant D168A transient HCV replicon in Huh-7-derived cells; assay: Transient-transfected HCV replicon EC50, genotype 1b D168A; settings: Hepatitis C virus, 72 h, read-out: EC50 1B D168A, transient-transfected replicon genotype 1b D168A resistant variant, 72 h
[2] = system: genotype 1a (H77) stable HCV replicon in Huh-7-derived cells; assay: Stable subgenomic HCV replicon EC50, genotype 1a (Renilla luciferase); settings: Hepatitis C virus, stable replicon genotype 1a, 72 h, read-out: EC50 1A RLUC
Method: (§1) Antiviral potency (EC50) was determined in both stable subgenomic HCV replicon cell lines and transient-transfected HCV replicon cells. The term half maximal effective concentration (EC50) refers to the concentration of a drug which induces a response halfway between the baseline and maximum after the exposure time specified below.
(§2) Stable subgenomic HCV replicons for genotype 1a, 1b, 2a, 3a, and 4a were established in Huh-7-derived cells as described by Lohmann et al (Lohmann V, Korner F, Koch J, et al Replication of subgenomic hepatitis C virus RNAs in a hepatoma cell line. Science 1999; 285:119-3) Each stable cell line contains a bicistronic HCV replicon that encodes a humanized Renilla luciferase (hRLuc) reporter gene fused to a selectable neomycin-resistance gene, followed by an EMCV IRES and the NS3-NS5B coding region of HCV. […] Luciferase activity was measured as a marker for intracellular HCV replication levels.
(§3) The genotype 1a stable replicon was derived from the H77 HCV strain and contained adaptive mutations P1496L and S2204I. The genotype 1b stable replicon was derived from the Con1 HCV strain and contained adaptive mutations E1202G, T1280I and K1846T. […] The genotype 3a stable replicon was derived from the S52 HCV strain and contained adaptive mutations P1121L, A1198T and S2210I (equivalent to S2204I in genotype 1). The genotype 4a stable replicon was derived from the ED43 HCV strain and contained adaptive mutations Q1691R and S2204I. All replicon cell lines were propagated in Huh-7-derived cells and maintained in Dulbecco's modified Eagle's Medium (DMEM) supplemented with 10% fetal bovine serum (FBS) and 0.5 mg/mL G418.
(§4) To perform EC50 assays, cells from each HCV replicon were dispensed into 384-well plates. Compounds were dissolved in DMSO at a concentration of 10 mM and diluted in DMSO using an automated pipetting instrument. Three-fold serially diluted compounds were directly added to the cells using an automated instrument. […] Seventy-two hours later, cells were lysed and Renilla luciferase activity were quantified as recommended by the manufacturer (Promega-Madison, Wis.). Non-linear regression was performed to calculate EC50 values.

[3] = system: genotype 1a NS3/4a protease inhibitor resistant variant R155K transient HCV replicon in Huh-7-derived cells; assay: Transient-transfected HCV replicon EC50, genotype 1a R155K; settings: Hepatitis C virus, 72 h, read-out: EC50 1A R155K, transient-transfected replicon genotype 1a R155K resistant variant, 72 h
[4] = system: genotype 1a (H77) wild type transient HCV replicon in Huh-7-derived cells; assay: Transient-transfected HCV replicon EC50, genotype 1a wild type; settings: Hepatitis C virus, 72 h, read-out: EC50 1A WT
[5] = system: genotype 1b (Con1) stable HCV replicon in Huh-7-derived cells; assay: Stable subgenomic HCV replicon EC50, genotype 1b (Renilla luciferase); settings: Hepatitis C virus, stable replicon genotype 1b, 72 h, read-out: EC50 1B RLUC
Method: as §1, §2, §3, §4

[6] = system: genotype 2a (JFH-1) stable HCV replicon in Huh-7-derived cells; assay: Stable subgenomic HCV replicon EC50, genotype 2a (Renilla luciferase); settings: Hepatitis C virus, stable replicon genotype 2a, 72 h, read-out: EC50 2A RLUC
Method: as §1, §2, §3, §4

[7] = system: genotype 4a (ED43) stable HCV replicon in Huh-7-derived cells; assay: Stable subgenomic HCV replicon EC50, genotype 4a (Renilla luciferase); settings: Hepatitis C virus, 72 h, read-out: EC50 4A RLUC
Method: as §1, §2, §3, §4

[8] = system: genotype 1b (Con1) wild type transient HCV replicon in Huh-7-derived cells; assay: Transient-transfected HCV replicon EC50, genotype 1b wild type; settings: Hepatitis C virus, 72 h, read-out: EC50 1B WT
[9] = system: genotype 3a (S52) stable HCV replicon in Huh-7-derived cells; assay: Stable subgenomic HCV replicon EC50, genotype 3a (Renilla luciferase); settings: Hepatitis C virus, 72 h, read-out: EC50 3A RLUC
Method: as §1, §2, §3, §4

[10] = transient-transfected replicon genotype 1a wild type
[11] = transient-transfected replicon genotype 1b wild type

Compound | pEC50 [1] | pEC50 [2] | pEC50 [3] | pEC50 [4, 10] | pEC50 [5] | pEC50 [6] | pEC50 [7] | pEC50 [8, 11] | pEC50 [9] | pEC50 [4] | pEC50 [8]
CC[C@@H]1[C@@H]2CN(C(=O)[C@H](C(C)(C)C)NC(=O)O[C@@H]3C[C@H]3CCCCCc3nc4ccc(OC)cc4nc3O2)[C@@H]1C(=O)N[C@]1(C(=O)NS(=O)(=O)C2CC2)C[C@H]1C(F)F [Example 2, (1aR,5S,8S,9S,10R,22aR)-5-tert-butyl-N-[(1R,2R)-1-[(cyclopropylsulfonyl)carbamoyl]-2-(difluoromethyl)cyclopropyl]-9-ethyl-14-methoxy-3,6-dioxo-1,1a,3,4,5,6,9,10,18,19,20,21,22,22a-tetradecahydro-8H-7,10-methanocyclopropa[18,19][1,10,3,6]dioxadiazacyclononadecino[11,12-b]quinoxaline-8-carboxamide] | 7.48 | 8.40 | 8.15 | 8.62 | 8.51 | 8.41 | 8.57 | 9.00 | 7.11 |  | 
CC[C@@H]1[C@@H]2CN(C(=O)[C@H](C(C)(C)C)NC(=O)O[C@@H]3C[C@H]3CCCCCc3nc4ccc(OC)cc4nc3O2)[C@@H]1C(=O)N[C@]1(C(=O)NS(=O)(=O)C2CC2)C[C@H]1CC [Example 3, (1aR,5S,8S,9S,10R,22aR)-5-tert-butyl-N-{(1R,2R)-1-[(cyclopropylsulfonyl)carbamoyl]-2-ethylcyclopropyl}-9-ethyl-14-methoxy-3,6-dioxo-1,1a,3,4,5,6,9,10,18,19,20,21,22,22a-tetradecahydro-8H-7,10-methanocyclopropa[18,19][1,10,3,6]dioxadiazacyclononadecino[11,12-b]quinoxaline-8-carboxamide] | 6.89 | 7.93 | 7.49 | 8.18 | 8.01 | 7.55 | 8.00 | 8.46 | 6.26 |  | 
CC[C@@H]1[C@@H]2CN(C(=O)[C@H](C(C)(C)C)NC(=O)O[C@@H]3CCC[C@H]3CCCCCc3nc4ccc(OC)cc4nc3O2)[C@@H]1C(=O)N[C@]1(C(=O)NS(=O)(=O)C2(C)CC2)C[C@H]1C(F)F [Example 6, (3aR,7S,10S,11S,12R,24aR)-7-tert-butyl-N-[(1R,2R)-2-(difluoromethyl)-1-{[(1-methylcyclopropyl)sulfonyl]carbamoyl}cyclopropyl]-11-ethyl-16-methoxy-5,8-dioxo-1,2,3,3a,5,6,7,8,11,12,20,21,22,23,24,24a-hexadecahydro-10H-9,12-methanocyclopenta[18,19][1,10,3,6] dioxadiazacyclononadecino[11,12-b]quinoxaline-10-carboxamide] | 6.67 | 7.46 | 7.24 | 7.59 | 7.44 | 7.47 | 7.47 | 7.96 | 5.87 |  | 
CC[C@@H]1[C@@H]2CN(C(=O)[C@H](C(C)(C)C)NC(=O)O[C@@]3(C)C[C@@H]3CCCCCc3nc4ccc(OC)cc4nc3O2)[C@@H]1C(=O)N[C@]1(C(=O)NS(=O)(=O)C2(C)CC2)C[C@H]1C(F)F [Example 8, (1aS,5S,8S,9S,10R,22aS)-5-tert-butyl-N-[(1R,2R)-2-(difluoromethyl)-1-{[(1-methylcyclopropyl)sulfonyl]carbamoyl}cyclopropyl]-9-ethyl-14-methoxy-1a-methyl-3,6-dioxo-1,1a,3,4,5,6,9,10,18,19,20,21,22,22a-tetradecahydro-8H-7,10-methanocyclopropa[18,19][1,10,3,6] dioxadiazacyclononadecino[11,12-b]quinoxaline-8-carboxamide] | 7.05 | 7.80 | 7.55 | 8.06 | 8.07 | 7.70 | 7.89 | 8.32 | 6.33 |  | 
CC[C@@H]1[C@@H]2CN(C(=O)[C@H](C3CCCC3)NC(=O)O[C@@H]3C[C@H]3CCCCCc3nc4ccc(OC)cc4nc3O2)[C@@H]1C(=O)N[C@]1(C(=O)NS(=O)(=O)C2CC2)C[C@H]1C(F)F [Example 15, (1aR,5S,8S,9S,10R,22aR)-5-cyclopentyl-N-[(1R,2R)-1-[(cyclopropylsulfonyl)carbamoyl]-2-(difluoromethyl)cyclopropyl]-9-ethyl-14-methoxy-3,6-dioxo-1,1a,3,4,5,6,9,10,18,19,20,21,22,22a-tetradecahydro-8H-7,10-methanocyclopropa[18,19][1,10,3,6]dioxadiazacyclononadecino[11,12-b]quinoxaline-8-carboxamide] | 6.74 | 7.96 | 7.70 |  | 8.17 | 8.01 | 8.11 |  | 6.26 | 8.19 | 8.52
COc1ccc2nc3c(nc2c1)O[C@H]1CN(C(=O)[C@H](C(C)(C)C)NC(=O)O[C@@H]2C[C@H]2CCCCC3)[C@H](C(=O)N[C@]2(C(=O)NS(=O)(=O)C3CC3)C[C@H]2C(F)F)[C@@H]1C [Example 19, (1aR,5S,8S,9S,10R,22aR)-5-tert-butyl-N-[(1R,2R)-1-[(cyclopropylsulfonyl)carbamoyl]-2-(difluoromethyl)cyclopropyl]-14-methoxy-9-methyl-3,6-dioxo-1,1a,3,4,5,6,9,10,18,19,20,21,22,22a-tetradecahydro-8H-7,10-methanocyclopropa[18,19][1,10,3,6]dioxadiazacyclononadecino[11,12-b]quinoxaline-8-carboxamide] | 7.55 | 8.40 | 8.47 |  | 8.59 | 8.34 | 8.51 |  | 7.05 | 8.68 | 8.96
CC[C@@H]1C[C@]1(NC(=O)[C@@H]1[C@H](C)[C@@H]2CN1C(=O)[C@H](C(C)(C)C)NC(=O)O[C@@H]1C[C@H]1CCCCCc1nc3ccc(OC)cc3nc1O2)C(=O)NS(=O)(=O)C1CC1 [Example 20, (1aR,5S,8S,9S,9S,10R,22aR)-5-tert-butyl-N-{(1R,2R)-1-[(cyclopropylsulfonyl)carbamoyl]-2-ethylcyclopropyl}-14-methoxy-9-methyl-3,6-dioxo-1,1a,3,4,5,6,9,10,18,19,20,21,22,22a-tetradecahydro-8H-7,10-methanocyclopropa[18,19][1,10,3,6]dioxadiazacyclononadecino[11,12-b]quinoxaline-8-carboxamide] | 7.05 | 8.09 | 7.77 |  | 8.28 | 7.72 | 8.23 |  | 6.41 | 8.47 | 8.57
CC[C@@H]1C[C@]1(NC(=O)[C@@H]1[C@H](C)[C@@H]2CN1C(=O)[C@H](C(C)(C)C)NC(=O)O[C@@H]1C[C@H]1CCCCCc1nc3ccc(OC)cc3nc1O2)C(=O)NS(=O)(=O)C1(C)CC1 [Example 21, (1aR,5S,8S,9S,10R,22aR)-5-tert-butyl-N-[(1R,2R)-2-ethyl-1-{[(1-methylcyclopropyl)sulfonyl]carbamoyl}cyclopropyl]-14-methoxy-9-methyl-3,6-dioxo-1,1a,3,4,5,6,9,10,18,19,20,21,22,22a-tetradecahydro-8H-7,10-methanocyclopropa[18,19][1,10,3,6]dioxadiazacyclononadecino[11,12-b]quinoxaline-8-carboxamide] | 7.15 | 8.17 | 7.82 |  | 8.33 | 7.92 | 8.21 |  | 6.58 | 8.39 | 8.42
